From patent US20250215010A1, “DIAZABICYCLOOCTANE DERIVATIVES USEFUL AS MATRIX METALLOPROTEINASE INHIBITORS” (VASA THERAPEUTICS SPOLKA Z OGRANICZONA ODPOWIEDZIALNOSCIA, priority 2022, published 2025)
Where two headings read alike, the source gives them in different places.

Legend:
Assay type in all cases: biochemical
MMP1 = biological target: T1, MMP1 (Homo sapiens, UniProt P03956); assay: MMP-1 colorimetric inhibition assay (Enzo kit BML-AK404)
T1 sequence (P03956 100-269 limits assumed): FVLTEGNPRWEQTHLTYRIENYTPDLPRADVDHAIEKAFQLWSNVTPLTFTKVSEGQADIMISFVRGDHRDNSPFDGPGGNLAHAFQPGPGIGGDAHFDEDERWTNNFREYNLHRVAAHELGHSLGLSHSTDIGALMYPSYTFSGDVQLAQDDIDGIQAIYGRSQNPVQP
Protocol: (§1) The inhibitory activities of the compounds of the invention were assessed in 96-well microplate format using MMP1, MMP2, MMP9 and MMP13 colorimetric assay kits and TACE fluorometric assay kit from Enzo Life Sciences, Inc. The inhibitory effect of the compounds of the invention on ADAM10 activity were evaluated in 96-well microplate format using fluorometric assay from AnaSpec, Inc.
(§2) The MMP-1 Colorimetric Drug Discovery Kit (catalog #BML-AK404) is a complete assay system designed to screen inhibitors of matrix metalloproteinase-1 using a thiopeptide as a chromogenic substrate (Ac-PLG-[2-mercapto-4-methylpentanoyl]-LG-OC2H5). The MMP cleavage site peptide bond is replaced by a thioester bond in the thiopeptide. Hydrolysis of this bond by an MMP produces a sulfhydryl group, which reacts with DTNB [5,5′-dithiobis(2-nitrobenzoic acid), Ellman's reagent] to form 2-nitro-5-thiobenzoic acid, that can be detected spectrophotometrically.
(§3) The inhibitory activities of the compounds of the invention against MMP1, MMP2, MMP9 and MMP13 were tested according to the manufacturer's assay protocols and the absorbance at 415 nm was monitored using the Tecan Infinite® 200 Pro F Nano^+ microplate reader.
(§4) The normalized values were analyzed using GraphPadPrism 9 for Windows (GraphPad Software, San Diego, CA, USA) software by plotting inhibition curves and determining the IC50 values (in nM).

MMP9 = MMP9 (Homo sapiens, UniProt P14780); assay: MMP-9 colorimetric inhibition assay (Enzo kit BML-AK410)
Chain of MMP9 (P14780 94-707): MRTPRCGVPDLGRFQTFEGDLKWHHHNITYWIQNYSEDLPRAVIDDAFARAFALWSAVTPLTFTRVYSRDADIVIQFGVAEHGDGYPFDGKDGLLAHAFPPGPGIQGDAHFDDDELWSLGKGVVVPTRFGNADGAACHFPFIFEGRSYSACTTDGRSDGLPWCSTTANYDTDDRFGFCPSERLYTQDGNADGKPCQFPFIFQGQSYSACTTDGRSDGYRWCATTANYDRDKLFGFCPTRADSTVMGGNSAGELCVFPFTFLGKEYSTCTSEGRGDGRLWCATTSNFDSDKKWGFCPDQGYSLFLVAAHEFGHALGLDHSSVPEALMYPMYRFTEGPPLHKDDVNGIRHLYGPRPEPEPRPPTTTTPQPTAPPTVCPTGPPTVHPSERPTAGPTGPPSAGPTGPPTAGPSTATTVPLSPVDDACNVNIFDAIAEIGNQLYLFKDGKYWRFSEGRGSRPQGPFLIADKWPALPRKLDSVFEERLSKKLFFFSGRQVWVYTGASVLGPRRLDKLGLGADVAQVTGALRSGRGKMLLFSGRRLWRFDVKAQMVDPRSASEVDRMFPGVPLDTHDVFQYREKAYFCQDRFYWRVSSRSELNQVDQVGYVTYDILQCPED
Protocol: as §1
as §2, with “MMP-9” for “MMP-1”, “#BML-AK410)” for “#BML-AK404)”, “metalloproteinase-9” for “metalloproteinase-1”
as §3, §4

MMP13 = biological target: T2, MMP13 (Homo sapiens, UniProt P45452); assay: MMP-13 colorimetric inhibition assay (Enzo kit BML-AK412)
T2 construct: purchased Enzo Life Sciences, Inc. BML-AK412
Protocol: as §1
as §2, with “MMP-13” for “MMP-1”, “#BML-AK412)” for “#BML-AK404)”, “metalloproteinase-13” for “metalloproteinase-1”
as §3, §4

MMP2 = biological target: T3, MMP2 (Homo sapiens, UniProt P08253); assay: MMP-2 colorimetric inhibition assay (Enzo kit BML-AK408)
T3 sequence (P08253 110-660): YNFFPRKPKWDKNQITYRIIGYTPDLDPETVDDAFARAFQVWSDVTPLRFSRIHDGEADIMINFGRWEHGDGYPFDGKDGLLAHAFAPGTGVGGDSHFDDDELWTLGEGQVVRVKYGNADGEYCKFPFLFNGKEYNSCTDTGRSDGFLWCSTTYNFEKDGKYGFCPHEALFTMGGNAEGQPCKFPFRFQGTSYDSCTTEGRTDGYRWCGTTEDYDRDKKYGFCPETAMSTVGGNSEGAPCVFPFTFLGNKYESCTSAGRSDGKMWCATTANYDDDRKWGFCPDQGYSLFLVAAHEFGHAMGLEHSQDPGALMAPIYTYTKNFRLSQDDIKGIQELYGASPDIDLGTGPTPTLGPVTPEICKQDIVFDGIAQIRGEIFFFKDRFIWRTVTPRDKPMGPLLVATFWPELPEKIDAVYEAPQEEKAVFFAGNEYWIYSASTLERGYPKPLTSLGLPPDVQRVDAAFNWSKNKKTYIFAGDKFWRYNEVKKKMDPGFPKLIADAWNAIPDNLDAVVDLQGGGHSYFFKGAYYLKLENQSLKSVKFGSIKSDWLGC
Protocol: as §1
as §2, with “MMP-2” for “MMP-1”, “#BML-AK408)” for “#BML-AK404)”, “screen MMP-2” for “screen”, “inhibitors” for “inhibitors of matrix metalloproteinase-1”
as §3, §4

ADAM17 (TACE) = ADAM17 (TACE) (Homo sapiens, UniProt P78536); assay: TACE fluorometric inhibition assay (Enzo kit BML-AK310)
Chain of ADAM17 (TACE) (P78536 215-477 limits assumed): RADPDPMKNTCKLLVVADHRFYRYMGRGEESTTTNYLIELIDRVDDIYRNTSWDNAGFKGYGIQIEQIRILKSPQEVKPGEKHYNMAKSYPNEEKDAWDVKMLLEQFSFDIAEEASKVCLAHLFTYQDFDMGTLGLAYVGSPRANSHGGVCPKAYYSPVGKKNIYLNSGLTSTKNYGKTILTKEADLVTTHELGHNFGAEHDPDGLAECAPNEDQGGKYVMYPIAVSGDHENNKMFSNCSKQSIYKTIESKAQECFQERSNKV
Protocol: as §1
The TACE Fluorometric Drug Discovery Kit (catalog #BML-AK310) is a complete assay system designed to screen ADAM17 (TACE) inhibitors using a quenched fluorogenic peptide: Mca-PLAQAV-Dpa-RSSSR—NH2. Mca fluorescence is quenched by the Dpa group until cleavage by proteases separates the two moieties leading to an increase in Mca fluorescence.
The inhibitory activity of the compounds of the invention against TACE was tested according to the manufacturer's assay protocol and the fluorescence was monitored at excitation/emission wavelengths=320 nm/420 nm using Tecan Infinite® 200 Pro F Nano^+ microplate reader.
as §4

[1] = thiopeptide substrate, absorbance 415 nm, read-out: MMP 1 IC50 class
[2] = thiopeptide substrate, absorbance 415 nm, read-out: MMP 9 IC50 class
[3] = thiopeptide substrate, absorbance 415 nm, read-out: MMP 13 IC50 class
[4] = thiopeptide substrate, absorbance 415 nm, read-out: MMP 2 IC50 class
[5] = quenched fluorogenic peptide, ex/em 320/420 nm, read-out: TACE IC50 class

| Structure (SMILES) | IC50 (MMP1; [1]) | IC50 (MMP9; [2]) | IC50 (MMP13; [3]) | IC50 (MMP2; [4]) | IC50 (ADAM17 (TACE); [5]) | IC50 (MMP1) | IC50 (MMP9) | IC50 (MMP13) | IC50 (MMP2) | IC50 (ADAM17 (TACE)) |
| --- | --- | --- | --- | --- | --- | --- | --- | --- | --- | --- |
| CCOC(=O)N1[C@@H]2CC[C@H]1[C@H](C(=O)NO)N(S(=O)(=O)N1CCC(Oc3ccnc(C(F)(F)F)c3)CC1)C2 [Example 50, ethyl (1S,2R,5R)-2-(hydroxy-carbamoyl)-3-((4-((2-(trifluoro-methyl)pyridin-4-yl)oxy)-piperidin-1-yl)-sulfonyl)-3,8-diazabicyclo-[3.2.1]octane-8-carboxylate] | > 10000 nM | 50 to 1000 nM | 50 to 1000 nM | 50 to 1000 nM | 1000 to 10000 nM | – | – | – | – | – |
| CC(=O)N1[C@@H]2CC[C@H]1[C@H](C(=O)NO)N(S(=O)(=O)N1CCC(Oc3ccnc(C(F)(F)F)c3)CC1)C2 [Example 64, (1S,2R,5R)-8-acetyl-N-hydroxy-3-((4-((2-(trifluoromethyl)-pyridin-4-yl)oxy)-piperidin-1-yl)-sulfonyl)-3,8-diazabicyclo[3.2.1]-octane-2-carboxamide] | 1000 to 10000 nM | 50 to 1000 nM | 50 to 1000 nM | 50 to 1000 nM | 1000 to 10000 nM | – | – | – | – | – |
| COCCOC(=O)N1[C@@H]2CC[C@H]1[C@H](C(=O)NO)N(S(=O)(=O)N1CCC(Oc3ccc(Cl)cc3)C1)C2 (stereo partly drawn) [Example 46, 2-methoxyethyl (1S,2R,5R)-3-((3-(4-chloro-phenoxy)-pyrrolidin-1-yl)-sulfonyl)-2-(hydroxy-carbamoyl)-3,8-diazabicyclo-[3.2.1]octane-8-carboxylate] | – | – | – | – | – | > 10000 nM | 50 to 1000 nM | 50 to 1000 nM | 50 to 1000 nM | 50 to 1000 nM |
| COCCOC(=O)N1[C@@H]2CC[C@H]1[C@H](C(=O)NO)N(S(=O)(=O)c1ccc(Oc3cnn(CC(C)C)c3)nc1)C2 [Example 38, 2-methoxyethyl (1S,2R,5R)-2-(hydroxycarbamoyl)-3-((6-((1-isobutyl-1H-pyrazol-4-yl)oxy)pyridin-3-yl)sulfonyl)-3,8-diazabicyclo-[3.2.1]octane-8-carboxylate] | 1000 to 10000 nM | 50 to 1000 nM | 50 to 1000 nM | 50 to 1000 nM | 50 to 1000 nM | – | – | – | – | – |
| COCCOC(=O)N1[C@@H]2CC[C@H]1[C@H](C(=O)NO)N(S(=O)(=O)c1ccc(Oc3nc4ccccc4o3)c(F)c1)C2 [Example 79, 2-methoxyethyl (1S,2R,5R)-3-((4-(benzo[d]oxazol-2-yloxy)-3-fluorophenyl)sulfonyl)-2-(hydroxycarbamoyl)-3,8-diazabicyclo[3.2.1]octane-8-carboxylate] | > 10000 nM | 1000 to 10000 nM | 50 to 1000 nM | 50 to 1000 nM | 1000 to 10000 nM | – | – | – | – | – |
| COCCOC(=O)N1[C@@H]2CC[C@H]1[C@H](C(=O)NO)N(S(=O)(=O)c1ccc(Oc3ccc(OCF)cc3)nc1)C2 [Example 43, 2-methoxyethyl (1S,2R,5R)-3-((6-(4-(fluoromethoxy)phenoxy)pyridin-3-yl)sulfonyl)-2-(hydroxycarbamoyl)-3,8-diazabicyclo[3.2.1]octane-8-carboxylate] | 1000 to 10000 nM | < 50 nM | < 50 nM | < 50 nM | 1000 to 10000 nM | – | – | – | – | – |
| CC(C)Oc1ccc(Oc2ccc(S(=O)(=O)N3C[C@H]4CC[C@@H]([C@@H]3C(=O)NO)N4C(=O)C(C)C)cn2)cc1 [Example 60, (1S,2R,5R)-N-hydroxy-8-isobutyry1-3-((6-(4-isopropoxy-phenoxy)pyridin-3-yl)sulfonyl)-3,8-diazabicyclo-[3.2.1]octane-2-carboxamide] | 1000 to 10000 nM | < 50 nM | < 50 nM | < 50 nM | > 10000 nM | – | – | – | – | – |
| COCCOC(=O)N1[C@@H]2CC[C@H]1[C@H](C(=O)NO)N(S(=O)(=O)c1ccc(OC3CCN(C(C)C)CC3)nc1)C2 [Example 75, 2-methoxyethyl (1S,2R,5R)-2-(hydroxycarbamoyl)-3-((6-((1-isopropyl-piperidin-4-yl)oxy)-pyridin-3-yl)-sulfonyl)-3,8-diaza-bicyclo[3.2.1]octane-8-carboxylate] | 1000 to 10000 nM | 50 to 1000 nM | 50 to 1000 nM | 50 to 1000 nM | 1000 to 10000 nM | – | – | – | – | – |
| COCCOC(=O)N1[C@@H]2CC[C@H]1[C@H](C(=O)NO)N(S(=O)(=O)c1ccc(Oc3ccc(C)nc3)nc1)C2 [Example 16, 2-methoxyethyl (1S,2R,5R)-2-(hydroxycarbamoyl)-3-((6-((6-methylpyridin-3-yl)-oxy)pyridin-3-yl)-sulfonyl)-3,8-diaza-bicyclo[3.2.1]octane-8-carboxylate] | 1000 to 10000 nM | 50 to 1000 nM | 50 to 1000 nM | < 50 nM | 1000 to 10000 nM | – | – | – | – | – |
| CCn1cc(Oc2ccc(S(=O)(=O)N3C[C@H]4CC[C@@H]([C@@H]3C(=O)NO)N4C(=O)OCCOC)cn2)cn1 [Example 35, 2-methoxyethyl (1S,2R,5R)-3-((6-((1-ethyl-1H-pyrazol-4-yl)-oxy)pyridin-3-yl)-sulfonyl)-2-(hydroxycarbamoyl)-3,8-diaza-bicyclo[3.2.1]octane-8-carboxylate] | 50 to 1000 nM | < 50 nM | < 50 nM | < 50 nM | 50 to 1000 nM | – | – | – | – | – |
| COCCOC(=O)N1[C@@H]2CC[C@H]1[C@H](C(=O)NO)N(S(=O)(=O)N1CCN(Cc3ccc(OC)cc3)CC1)C2 [Example 77, 2-methoxyethyl (1S,2R,5R)-2-(hydroxycarbamoyl)-3-((4-(4-methoxybenzyl)piperazin-1-yl)sulfonyl)-3,8-diazabicyclo[3.2.1]octane-8-carboxylate] | > 10000 nM | 50 to 1000 nM | 1000 to 10000 nM | 50 to 1000 nM | 1000 to 10000 nM | – | – | – | – | – |
| CN1CCN(C(=O)N2[C@@H]3CC[C@H]2[C@H](C(=O)NO)N(S(=O)(=O)c2ccc(Oc4ccc(F)cc4)nc2)C3)CC1 [Example 69, (1S,2R,5R)-3-((6-(4-fluorophenoxy)pyridin-3-yl)sulfonyl)-N-hydroxy-8-(4-methyl-piperazine-1-carbonyl)-3,8-diazabicyclo-[3.2.1]octane-2-carboxamide] | 1000 to 10000 nM | 50 to 1000 nM | 50 to 1000 nM | < 50 nM | 1000 to 10000 nM | – | – | – | – | – |
